The text below walks through data of ChEMBL document CHEMBL1154932, “Structure-based drug design enables conversion of a DFG-in binding CSF-1R kinase inhibitor to a DFG-out binding mode” (Bioorg Med Chem Lett, 2010).

One data set addresses hERG (KCNH2) (Homo sapiens, UniProt Q12809). The data set is described as follows: Inhibition of CyB-tagged dofetilide binding to human ERG at 10 uM. The note with it: probe CyB-tagged dofetilide.
For data set [1], the target named is Macrophage colony-stimulating factor 1 receptor (Homo sapiens, UniProt P07333). Description: Inhibition of human CSF1R autophosphorylation expressed in HEK293 cells after 1 hr by ELISA. In general terms: ELISA stands for enzyme-linked immunosorbent assay.
Chain of Macrophage colony-stimulating factor 1 receptor (P07333 whole entry): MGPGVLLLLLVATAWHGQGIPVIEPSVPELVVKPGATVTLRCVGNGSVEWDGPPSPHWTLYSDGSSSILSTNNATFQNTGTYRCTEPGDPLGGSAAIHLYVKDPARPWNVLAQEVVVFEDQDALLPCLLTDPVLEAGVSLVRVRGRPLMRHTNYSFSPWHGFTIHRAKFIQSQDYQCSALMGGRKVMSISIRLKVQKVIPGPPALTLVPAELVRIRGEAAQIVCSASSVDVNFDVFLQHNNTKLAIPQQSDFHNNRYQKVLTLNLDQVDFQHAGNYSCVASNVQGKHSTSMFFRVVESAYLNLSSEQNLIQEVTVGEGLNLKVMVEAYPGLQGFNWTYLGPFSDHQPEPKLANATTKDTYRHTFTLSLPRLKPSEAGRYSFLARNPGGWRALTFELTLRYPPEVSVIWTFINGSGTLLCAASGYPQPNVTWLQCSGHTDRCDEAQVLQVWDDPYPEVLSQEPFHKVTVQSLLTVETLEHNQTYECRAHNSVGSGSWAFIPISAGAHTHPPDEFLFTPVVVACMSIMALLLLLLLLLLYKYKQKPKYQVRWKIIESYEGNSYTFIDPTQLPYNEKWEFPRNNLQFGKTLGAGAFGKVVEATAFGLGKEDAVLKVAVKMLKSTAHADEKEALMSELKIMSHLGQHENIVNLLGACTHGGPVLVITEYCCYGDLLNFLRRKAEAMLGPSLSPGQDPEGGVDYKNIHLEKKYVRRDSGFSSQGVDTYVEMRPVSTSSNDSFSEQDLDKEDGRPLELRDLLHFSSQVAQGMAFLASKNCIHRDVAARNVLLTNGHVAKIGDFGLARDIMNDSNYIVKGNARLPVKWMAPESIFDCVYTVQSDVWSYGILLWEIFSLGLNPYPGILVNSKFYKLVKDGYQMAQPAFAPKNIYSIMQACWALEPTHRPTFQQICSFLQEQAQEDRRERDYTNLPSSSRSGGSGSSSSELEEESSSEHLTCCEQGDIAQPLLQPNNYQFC

Chain of hERG (KCNH2) (Q12809 whole entry): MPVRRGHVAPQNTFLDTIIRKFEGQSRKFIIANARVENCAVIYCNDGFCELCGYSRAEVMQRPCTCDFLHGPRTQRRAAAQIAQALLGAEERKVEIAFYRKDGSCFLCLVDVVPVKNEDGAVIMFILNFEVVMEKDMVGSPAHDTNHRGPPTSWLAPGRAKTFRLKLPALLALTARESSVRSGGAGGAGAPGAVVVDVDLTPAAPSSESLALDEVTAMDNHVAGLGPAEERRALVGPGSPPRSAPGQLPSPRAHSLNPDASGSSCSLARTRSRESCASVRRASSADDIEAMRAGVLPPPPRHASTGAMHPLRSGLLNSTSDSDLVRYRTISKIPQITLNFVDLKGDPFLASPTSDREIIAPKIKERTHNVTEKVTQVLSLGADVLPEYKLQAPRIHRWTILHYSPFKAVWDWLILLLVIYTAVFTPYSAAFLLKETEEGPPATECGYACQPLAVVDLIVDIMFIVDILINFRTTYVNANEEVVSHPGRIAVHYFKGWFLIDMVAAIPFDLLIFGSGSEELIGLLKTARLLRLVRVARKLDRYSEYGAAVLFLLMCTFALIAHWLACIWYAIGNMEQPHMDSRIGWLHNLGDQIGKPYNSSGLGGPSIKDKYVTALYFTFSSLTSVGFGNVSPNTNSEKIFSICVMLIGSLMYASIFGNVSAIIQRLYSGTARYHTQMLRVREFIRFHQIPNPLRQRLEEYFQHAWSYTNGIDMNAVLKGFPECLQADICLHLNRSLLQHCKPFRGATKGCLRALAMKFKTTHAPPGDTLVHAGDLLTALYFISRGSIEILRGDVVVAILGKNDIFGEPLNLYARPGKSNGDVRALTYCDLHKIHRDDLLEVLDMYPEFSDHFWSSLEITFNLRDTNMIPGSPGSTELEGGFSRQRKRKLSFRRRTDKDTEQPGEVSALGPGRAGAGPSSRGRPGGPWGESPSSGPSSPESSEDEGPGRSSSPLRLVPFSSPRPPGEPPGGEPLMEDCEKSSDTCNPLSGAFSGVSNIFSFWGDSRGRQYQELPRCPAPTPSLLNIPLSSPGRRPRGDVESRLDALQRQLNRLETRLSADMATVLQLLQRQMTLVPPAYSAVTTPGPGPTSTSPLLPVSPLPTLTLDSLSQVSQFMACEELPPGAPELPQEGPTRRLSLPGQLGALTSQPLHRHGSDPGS

What is called inhibition is the percentage by which the read-out fell short of the control. A higher inhibition goes with strong suppression. As to `Cn1cc(-c2cnc(N)c(OCc3c(Cl)cccc3Cl)n2)cn1`, the inhibition at 10 µM at hERG (KCNH2) worked out at 7%.

The term IC50 denotes the concentration that inhibits the measured activity by half. Lower therefore signals greater potency in that assay. As for `COc1ccc(COc2ncc(Oc3nc(-c4cnn(C)c4)cnc3N)cc2OC)cc1`, the IC50 in data set [1] was 12 nM.

As to `Cn1cc(-c2cnc(N)c(NCc3c(Cl)cccc3Cl)n2)cn1`, on hERG (KCNH2), the inhibition at 10 µM turned out to be 6%.

The molecule `Cn1cc(-c2cnc(N)c(OCc3ccccc3Cl)n2)cn1` gave an inhibition at 10 µM on hERG (KCNH2) of 7%.

On hERG (KCNH2), `Nc1ncc(-c2ccc(C(=O)N3CCC[C@H]3CN3CCCC3)cc2)nc1NCc1c(Cl)cccc1Cl` gave an inhibition at 10 µM of 78%.

For `Nc1ncc(-c2ccc(C(=O)N3CCC[C@H]3CN3CCCC3)cc2)nc1OCc1c(Cl)cccc1Cl`, the inhibition at 10 µM at hERG (KCNH2) was 91%.
